Test results from patent publication US20040208924A1, “Pharmaceutical tablet having a high api content” (priority 2001, published 2004).

Key:
[1] = test system: matrix metalloproteinase; conditions: statement referring to WO 97/12902 and U.S. Pat. No. 5,981,490; cited from earlier work
[2] = Compactability (slope of tensile strength versus compression pressure) of API blend compressed on an Instron; assay type: physicochemical
Protocol: In order to evaluate the compressibility and compactability of all API lots generated by modifying the crystallization process, a blend of 80% API, 19.5% microcrystalline cellulose and 0.5% magnesium stearate was prepared by mixing in a tumble mixer for 5 minutes. Each mixture was then compressed on an Instron (Universal Stress-Strain Analyzer) using a 0.5 inch diameter tooling (upper and lower punches and die) at a speed of 100 mm/min at compression forces of 5, 10, 15, 20 and 25 kN each for a replicate of three tablets. The tablet dimensions were measured using a digital Vernier calliper and the strength of the tablets were determined using an Erweka hardness tester. The volume of the tablet can be calculated from the tablet dimensions normalized for the true density of the mixture being compressed. The compressibility curves are generated by plotting the solid fraction of the tablet generated at each compression pressure versus the respective compression pressure. The area under such a curve represents the extent of volume reduction. The force required to break the tablets is normalized for the area of the tablet to obtain the tensile strength value. Slopes for profiles of tensile strength versus the compression pressure represent the compactability of the material while the area under the curve of tensile strength versus the solid fraction of the tablets represents the extent of compaction or toughness of the material.

[3] = Solid state stability of crystal forms; assay type: physicochemical; conditions: out of four crystal structures (forms 4, 5, 6, 7)
Text: Due to the unique structure of the API material at least four different groups of crystal structures were observed (forms 4, 5, 6, 7) and analyzed by single crystal x-ray. […] Orthorhombic Form 6 consisted of a group of isostructural (1:1) solvates which accommodates solvents such as EtOAc, acetone and MEK. […] An exhaustive study of API crystallization on the feasibility of various solvents, control of polymorphs, and robustness of process concluded that the selected form could be consistently produced and kept stable in iPrOAc (or BuOAc)/Heptane (or Cyclohexane), following which a reproducible crystallization procedure in the iPrOAc/heptane solvent system was developed and implemented. This procedure, associated with the aminolysis of penultimate compound (Chemical Abstracts Systematic Name, (αS)-α-(Benzoylthio)-3,4,4-trimethyl-2,5-dioxo-1-imidazolidinebutanoyl-L-leucyl-N,3-dimethyl-L-valinamide), is successful in purging undesirable side products/impurities such as α,α′-Dithiobis[N-[1-[[[2,2-dimethyl-1-[(methylamino)carbonyl]propyl]amino]-carbonyl]-3-methylbutyl]-3,4,4-trimethyl-2,5-dioxo-1-imidazolidinebutanamide] which is the S,S′-dimer of the API. The crystallization procedure is further described in Table 1.

Row | Compound | matrix metalloproteinase inhibition [1] | product compactability ([2]; 50-g sample recrystallized using 1% AirJet-milled seeds) | product compactability ([2]; 50-g sample recrystallized using 1% ball-milled seeds) | product compactability ([2]; 50-g sample recrystallized using 1% seeds crystallized from a ground seeded batch) | compactability ([2]; crystallized with 1% ground seeds, without sonication) | stability of the crystal structure in the solid state [3]
1 | CNC(=O)[C@@H](NC(=O)[C@H](CC(C)C)NC(=O)[C@@H](S)CCN1C(=O)N(C)C(C)(C)C1=O)C(C)(C)C [API, N-[(2S)-2-Mercapto-1-oxo-4-(3,4,4-trimethyl-2,5-dioxo-1-imidazolidinyl)butyl]-L-leucyl-N,3-dimethyl-L-valinamide] | effective matrix metalloproteinase inhibitor | 4.2 kPa/MPa | 5.9 Kpa/MPa | 5.3 kPa/MPa | 10.5 kPa/MPa | –
2 | CNC(=O)[C@@H](NC(=O)[C@H](CC(C)C)NC(=O)[C@@H](S)CCN1C(=O)N(C)C(C)(C)C1=O)C(C)(C)C [Form 4, N-[(2S)-2-Mercapto-1-oxo-4-(3,4,4-trimethyl-2,5-dioxo-1-imidazolidinyl)butyl]-L-leucyl-N,3-dimethyl-L-valinamide] | – | – | – | – | – | did not transform/decompose to other crystalline structures in the solid state
